Data as given in patent US20170071944A1, “MODULATORS OF TOLL-LIKE RECEPTORS FOR THE TREATMENT OF HIV” (Gilead Sciences, Inc., priority 2015, published 2017).
Values joined by “and” are separate entries in the source; they are usually repeats but may differ in a detail not shown here. Equal values may be shown once.

What was measured:
[1] = tested on: HIV-1 expression in PBMC cultures from HIV-1 infected subjects on cART; test: Induced HIV-1 expression in PBMC cultures from HIV-1 infected subjects on cART (HIV-1 RNA in culture supernatant, COBAS TaqMan); format: cell-based, human; details: for Fold HIV-1 Activation, Geometric Mean with ≧2-Fold-Activation / Fold HIV-1 Activation, Range with ≧2-Fold-Activation: N = 5 subjects
Method: In some experiments, IL-15, the TLR8 modulating compound of Example 15 or the combination of IL-15 and Example 15 were used at the indicated concentrations (Table 4). The cultures were maintained in the presence of antivirals (elvitegravir and efavirenz at 100 nM each) to prevent viral spread and amplification in order to measure the quantity of virus produced (latency reversal) by the TLR8 modulating compounds. At the end of the incubation period, cell-free culture supernatants were harvested and HIV-1 RNA levels were quantified by the COBAS® AmpliPrep/COBAS®TaqMan HIV-1 Test, v2.0 (Roche).
In each table, fold-activation is calculated as a ratio of HIV-1 RNA copies per ml of cell culture supernatants from TLR8 agonist treated samples and DMSO treated controls. Geometric mean fold-activation from three independent incubation samples for each condition of each subject's PBMCs.
To assess if the latency reversal induced by TLR8 agonism could further potentiate latency reversal by a separate mechanisms, we treated cells as described above with IL-15, Example 15, or a combination of IL-15 and Example 15 (Table 4).

[2] = tested on: HIV-specific polyfunctional CD8 T cells; test: Induced HIV-specific polyfunctional CD8+ T cells in PBMC cultures from HIV-1 infected subjects on cART; format: cell-based, human; details: for Median HIV-specific polyfunctional CD8 T cells (% proliferating CD8+ cells double positive for IFN-γ and TNF-α): 5 subjects, vehicle 0.73% (Example 15 group), 0.13% (Example 98 group)
[3] = tested on: serum cytokines and chemokines associated with TLR8 activation; test: Induction of cytokines and chemokines in Rhesus macaques (serum, Luminex); format: in vivo
Method: The TLR8 modulator of Example 65 was formulated in 2% ethanol, 40% polyethylene glycol 300, and 58% 0.01 N hydrochloric acid. Oral solutions of formulations were prepared by dissolving a sufficient amount of the compound in the 2% ethanol, 40% polyethylene glycol 300, and 58% 0.01 N hydrochloric acid vehicle to arrive at 0.5, 1.5, or 5 mg/ml of Example 65. Rhesus macaques were dosed orally with 1.2 to 2 mls/kg to achieve dose levels of 1, 3, 6, or 10 mg/kg Example 65. Blood samples were collected at 2, 4, 8, 12, 24 and 48 hours postdose (FIG. 5) and allowed to clot under ambient conditions prior to centrifugation to obtain serum. The indicated cytokines and chemokines were quantified in serum with a multiplexed Luminex® assay following the manufacturer's instructions (Life Technologies). […] At 10 and 6 mg/kg, IL-12, IL-1RA and MCP-1 peaked near 10 ng/ml and IL-6 peaked at 1 ng/ml.

[4] = Example 15 1000 nM and/or IL-15 1 nM, subjects 205-210

CCC[C@@H](CO)Nc1nc(N)nc2cc(F)c(F)cc12 [Example 119, (S)-2-((2-amino-6,7-difluoroquinazolin-4-yl)amino)pentan-1-ol, reference compound]
Fold HIV-1 Activation ([1]; 156 nM, 4 days, individual subjects 151-155, vs DMSO): 3.6 fold and 4.9 fold and 0.4 fold | Fold HIV-1 Activation, Geometric Mean with ≧2-Fold-Activation ([1]; 156 nM): 4.2 fold | Fold HIV-1 Activation, Range with ≧2-Fold-Activation ([1]; 156 nM): 3.6-4.9 fold | N with ≧2-Fold-Activation ([1]; 156 nM, subjects 151-155): 2 of 3 | N with ≧2-Fold-Activation (%) ([1]; 156 nM, subjects 151-155): (67) % | Fold HIV-1 Activation ([1]; 625 nM, 4 days, individual subjects 151-155, vs DMSO): 3.4 fold and 4.1 fold and 4.8 fold and 0.3 fold and 0.5 fold | Fold HIV-1 Activation, Geometric Mean with ≧2-Fold-Activation ([1]; 625 nM): 4.1 fold | Fold HIV-1 Activation, Range with ≧2-Fold-Activation ([1]; 625 nM): 3.4-4.8 fold | N with ≧2-Fold-Activation ([1]; 625 nM, subjects 151-155): 3 of 5 | N with ≧2-Fold-Activation (%) ([1]; 625 nM, subjects 151-155): (60) % | Fold HIV-1 Activation ([1]; 2,500 nM, 4 days, individual subjects 151-155, vs DMSO): 4.1 fold and 4.2 fold and 3.2 fold and 5.2 fold and 2.2 fold | Fold HIV-1 Activation, Geometric Mean with ≧2-Fold-Activation ([1]; 2,500 nM): 3.6 fold | Fold HIV-1 Activation, Range with ≧2-Fold-Activation ([1]; 2,500 nM): 2.2-5.2 fold | N with ≧2-Fold-Activation ([1]; 2,500 nM, subjects 151-155): 5 of 5 | N with ≧2-Fold-Activation (%) ([1]; 2,500 nM, subjects 151-155): (100) % | Fold HIV-1 Activation, Geometric Mean with ≧2-Fold-Activation ([1]; 156, 625, or 2500 nM): 4.1 fold | Fold HIV-1 Activation, Range with ≧2-Fold-Activation ([1]; 156, 625, or 2500 nM): 2.2-5.2 fold | N with ≧2-Fold-Activation ([1]; 156, 625, or 2500 nM, subjects 151-155): 5 out of 5 and 5 of 5

CCCCC(C)(CO)Nc1nc(N)nc2cc(F)cnc12 (stereo not drawn) [Example 98]
Patients in whom increases were seen ([2]; 100 nM): 4 of 5 | Median HIV-specific polyfunctional CD8 T cells (% proliferating CD8+ cells double positive for IFN-γ and TNF-α) ([2]; 100 nM with HIV peptide pool): 0.93% | Patients in whom increases were seen ([2]; 1000 nM): 4 of 5 | Increase of median HIV-specific polyfunctional CD8 T cells ([2]; 1000 nM combined with the HIV specific peptide pool, p<0.05): 7.1 fold | Median HIV-specific polyfunctional CD8 T cells (% proliferating CD8+ cells double positive for IFN-γ and TNF-α) ([2]; 1000 nM with HIV peptide pool): 0.92%

IL-15: interleukin IL-15, used at 1 nM as a separate latency reversal mechanism
Fold HIV-1 Activation, Geometric Mean ([1]; Example 15 1000 nM and/or IL-15 1 nM, N = 6 subjects): 2.9 fold | Fold HIV-1 Activation ([1]; Example 15 1000 nM and/or IL-15 1 nM, individual subjects 205-210, vs DMSO): 2.6 fold and 3.3 fold and 4.4 fold and 6.3 fold and 1.4 fold and 1.6 fold | N with ≧2-Fold-Activation [1, 4]: 4 of 6 | N with ≧2-Fold-Activation (%) [1, 4]: 66%

CCCC[C@](C)(CNC(C)=O)Nc1nc(N)nc2cc(Cl)cnc12 [Example 65]
Induction of cytokines associated with TLR8 activation, including IL-12, IL-6, IL-1RA and MCP-1 ([3]; oral, 1, 3, 6, or 10 mg/kg): induced in a dose-dependent manner | Time of peak cytokine concentrations post-dose ([3]; oral, 1, 3, 6, or 10 mg/kg): 2 h | Serum IL-1RA peak ([3]; oral, 10 and 6 mg/kg): ~10 ng/mL | Serum IL-6 peak ([3]; oral, 10 and 6 mg/kg): 1 ng/mL | Serum IL-12 peak ([3]; oral, 10 and 6 mg/kg): ~10 ng/mL | Serum MCP-1 peak ([3]; oral, 10 and 6 mg/kg): ~10 ng/mL
